# In paper PMC4503454, “A Lead-In with Silibinin Prior to Triple-Therapy Translates into Favorable Treatment Outcomes in Difficult-To-Treat HIV/Hepatitis C Coinfected Patients” (PLoS ONE, 2015):
# Tests used:
# [1] = Antiretroviral plasma trough levels before and during silibinin; assay type: in vivo, human
# Protocol: Plasma samples obtained from HIV-HCV infected individuals were isolated by immediate centrifugation at 1850 X g (3000 rpm) and stored at -80°C. For the plasma quantification of antiretroviral drugs, samples were inactivated for virus at 60°C for 60 minutes. Plasma levels were determined by liquid chromatography coupled with tandem mass spectrometry (LC-MS/MS) after protein precipitation with acetonitrile according to our previously reported validated analytical method. The laboratory participates in an international external quality assurance program for antiretroviral drugs analysis (KKGT, Stichting Kwaliteitsbewaking Klinische Geneesmiddelanalyse en Toxicologie, Association for Quality Assessment in TDM and clinical Toxicology, The Hague, The Netherlands). Plasma trough levels for raltegravir (RAL), darunavir (DRV), atazanavir (ATV), and etravirine (ETV) were graphically extrapolated from measured concentrations, using population pharmacokinetic models previously published. Reference values for efavirenz (EFV) were adopted from a study from Marzolini et al.. The median trough concentrations for these agents in HIV-infected persons receiving the recommended dose are taken from the guidelines for the use of antiretroviral agents in HIV-1 infected adults and adolescents.
# We used an intention-to-continue treatment approach to calculate virologic responses as percentage of patients with undetectable HCV-RNA, using all patients who started treatment as denominator. Plasma concentrations are presented as median (range). Two-tailed paired t-tests were conducted to detect difference in trough levels of antiretroviral drugs between pre- and post-administration of silibinin. GraphPad Prism 6 (GraphPad Software, La Jolla, CA) was used with an alpha of 0.05.
# [2] = design: species or system human; conditions: in vivo; for Median Cmax (Range): human, iv, 20 mg/kg/day
# Protocol: To measure silibinin plasma concentration, the plasma concentrations of silibinin isomers (A and B) and silibinin dihydrogen succinate isomers (A and B) were determined by LC/MS-MS. Of note, the range of plasma concentrations of the LC-MS/MS assay was selected according to the levels reported in the study from Sala et al. Briefly, 100 μl of plasma was added to 20 μl of internal standard naringenin (IS) and extracted by protein precipitation. After evaporation and reconstitution, 20 μL was injected into a Select- HSS T3 (2.1x75 mm, 3.5 μm) (Waters, Milford, MA, USA).
# Chromatographic separations were performed using a gradient program with 10 mM ammonium formate containing 0.1% formic acid and acetonitrile with 0.1% formic acid. Analytes were quantified by electrospray ionization-triple quadrupole mass spectrometry using the selected reaction monitoring detection in the negative mode. Importantly, the selected gradient program allows adequate separation to quantify isomers A and B individually. The method has a mean inter-day coefficient of variation (CV) % of <10% and an inter-day deviation from nominal values of <7%.
# Of note, the Cmin of isomer A of both silibinin dihydrogen succinate and silibinin were 2- and 7-fold higher than the corresponding values of isomer B [20].
# [3] = plasma, paired t-test, ATV/r p = 0.89, RAL p = 0.90, ETV, EFV, DRV/r p = 0.14
Compound,"trough level under silibinin coadministration (day 1 vs day 12) [1, 3]",further results
"O=C1Nc2ccc(Cl)cc2[C@@](C#CC2CC2)(C(F)(F)F)O1 [EFV, efavirenz]",,trough level under silibinin coadministration (day 1 vs day 12) ([1]; in vivo): not influenced
"Cc1cc(C#N)cc(C)c1Oc1nc(Nc2ccc(C#N)cc2)nc(N)c1Br [ETV, etravirine]",not influenced,
"Cc1nnc(C(=O)NC(C)(C)c2nc(C(=O)NCc3ccc(F)cc3)c(O)c(=O)n2C)o1 [RAL, raltegravir]",not influenced,
COc1cc([C@H]2Oc3cc([C@H]4Oc5cc(O)cc(O)c5C(=O)[C@@H]4O)ccc3O[C@@H]2CO)ccc1O [Silibinin A],,Median Cmax (Range) [2]: 0.62 (0.29–1.07) μg/mL; Cmin of isomer A relative to isomer B [2]: 7 fold
COc1cc(C2Oc3cc(C4Oc5cc(O)cc(O)c5C(=O)C4O)ccc3OC2CO)ccc1O (centres unmarked) [Silibinin B],,Median Cmax (Range) [2]: 0.25 (0.08–0.78) μg/mL
atazanavir/ritonavir [ATV/r],not influenced,
darunavir/ritonavir [DRV/r],not influenced,
